{"source": "paper PMC7136958", "about": "“Targeting the pregnane X receptor using microbial metabolite mimicry” (EMBO Molecular Medicine, 2020)", "key": {"[1]": {"test_system": "TLR4, CYP3A4, MDR1 mRNA in Caco-2 cells", "test": "RT-qPCR of TLR4, CYP3A4, MDR1 mRNA in PXR-transfected Caco-2 cells", "assay_type": "cell-based, human", "conditions": "10 μM", "description": "RT–qPCR was performed using Thermo Fisher PowerUp SYBR Green Master Mix (# A25742) and Thermo Fisher qPCR 7900HT. Each sample was repeated in quadruplicate and normalized to internal control, GAPDH. The entire experiment was repeated at least two separate times. The primer sequences are noted in Table 2."}, "[2]": {"test_system": "ABCC2, UGT1A1, ABCB1, CYP3A4, GSTA1 mRNA", "test": "PXR target gene mRNA in human duodenal enteroids", "quoted_text": "Discarded duodenum tissue after surgery was obtained and used to isolate crypts. Embedded crypts in Matrigel formed 3D structures referred to as “enteroids”. […] DMSO was added to enteroids as a negative control. After incubation for 24 h, enteroids were collected in RNA‐free tube followed by breaking down Matrigel by pipetting vigorously (using 1 ml PBS). The enteroids were pelleted at 16,000 g for 3 min (4°C). RNA was extracted using miRNA isolation kit (Invitrogen; #AM1561) using the protocol provided by Invitrogen. […] PowerUp SYBR Green (Applied Biosystem, #A25742) was used for RT–PCR and performed 40 cycles using Quant Studio3 (Invitrogen, #A28132)."}, "[3]": {"test_system": "CYP1A1, CYP3A4, MDR1 mRNA in LS180 cells", "test": "qRT-PCR of CYP1A1, CYP3A4, MDR1 mRNA in LS180 cells with or without (mock) transfected PXR", "quoted_text": "(§1) Cells or primary human hepatocytes from four different donors (HEP200529, HEP220932, HEP200533, and HEP200538) were incubated for 24 h with test compounds; the vehicle was DMSO (0.1% v/v). Total RNA was isolated using TRI Reagent® (Molecular Research Center, Ohio, USA). cDNA was synthesized from 1,000 ng of total RNA using M‐MuLV Reverse Transcriptase (New England Biolabs, Ipswich, Massachusetts, USA) at 42°C for 60 min in the presence of random hexamers (New England Biolabs). Quantitative reverse transcriptase–polymerase chain reaction (qRT–PCR) was performed using LightCycler® 480 Probes Master on a LightCycler® 480 II apparatus (Roche Diagnostic Corporation).\n(§2) The following protocol was used: An activation step at 95°C for 10 min was followed by 45 cycles of PCR (denaturation at 95°C for 10 s; annealing with elongation at 60°C for 30 s). The measurements were performed in triplicate. Gene expression was normalized per GAPDH as a housekeeping gene. […] Data are expressed as fold induction ± SD over the vehicle‐treated cells. The bar graph depicts one representative experiment of a series of experiments performed in three consecutive passages of cells. Differences were tested using one‐way ANOVA with Dunnett's post hoc test, and P < 0.05 was considered significant."}, "[4]": {"test_system": "PXR target genes in LS174T PXR-KO cells", "test": "PXR target gene mRNA in LS174T PXR-KO cells", "assay_type": "cell-based, human", "description": "Figure EV5 LS174T PXR‐knockout (KO) cells are not responsive to PXR ligands • Expression of CYP1A1 and CYP3A4 mRNA in PXR‐knockout and wild‐type LS174T. […] Experiment was performed in 4 independent cell passages (6th, 8th, 10th, and 12th). The mRNA expression of CYP1A1 and CYP3A4 mRNA was determined by RT–PCR, and data were normalized to GAPDH mRNA level. (a) CYP1A1 mRNA. (b) CYP3A4 mRNA. Data are expressed as mean ± SD. • Immunoblot for PXR protein expression in PXR wild‐type and knockout (KO) cells. Experiment was performed in nine independent cell passages (P). • Fold mRNA expression of PXR target genes. Each tissue PCR was repeated in quadruplicate. The expression was normalized to internal control, GAPDH. The entire experiment was repeated n > 2 for reproducibility. The data shown are one representative experiment. Source data are available online for this figure.\nBriefly, cells were first tested negative for mycoplasma."}, "FXR": {"molecular_target": "T1, FXR (Homo sapiens, UniProt Q96RI1)", "T1 construct": "purchased Invitrogen PV4833", "T1 sequence (Q96RI1 211-486 limits assumed)": "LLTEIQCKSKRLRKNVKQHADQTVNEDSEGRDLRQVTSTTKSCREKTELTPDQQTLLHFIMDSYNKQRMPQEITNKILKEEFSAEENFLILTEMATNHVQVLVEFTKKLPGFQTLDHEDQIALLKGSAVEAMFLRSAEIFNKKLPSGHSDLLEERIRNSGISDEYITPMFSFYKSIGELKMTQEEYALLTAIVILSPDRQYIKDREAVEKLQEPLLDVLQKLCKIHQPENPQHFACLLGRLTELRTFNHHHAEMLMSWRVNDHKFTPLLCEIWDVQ", "test": "hFXR TR-FRET (LanthaScreen FXR Coactivator Assay)", "assay_type": "biochemical", "conditions": "1 nM to 25 µM", "quoted_text": "volume of 20 µl in 384-well black plates, with concentrations of tested compounds in the range from 1\nnm, on Infinite F200 microplate reader (Tecan Group Ltd, Switzerland).\nAll experiments were done in tetraplicates and as two independent experiments. Final EC50 values were obtained by processing the data with GraphPad Prism 6 using standard curve interpolation (sigmoidal, 4PL, variable slope)."}, "IL-8 mRNA": {"test_system": "IL-8 mRNA", "test": "TNF-α-induced IL-8 mRNA in human colonic enteroids (Calgary Protocol)", "assay_type": "cell-based", "conditions": "10 μM, pair-wise vs DMSO", "description": "Samples were immediately processed to yield isolated colonic crypts as previously described (Fernando et al, 2017). Isolated colonic crypts were embedded in Matrigel® (Corning) and cultured in Intesticult^tm Organoid Growth Media. Human organoids were pretreated for 6 h with either FKK5, FKK6, FKK9, or vehicle (DMSO), then stimulated with human recombinant TNF‐alpha in the presence of either treatment for an additional 12 h. Organoids were washed in PBS, disrupted in Tri Reagent® (Sigma, Oakville, ON, CAN), and frozen at −80°C. After thawing, chloroform was added, samples were centrifuged for 15 min, and the resulting aqueous phase was then added to equal volumes of 70% ethanol and further processed using the RNeasy mini kit (Qiagen). cDNA was synthesized using the QuantiTect RT kit (Qiagen) according to the manufacturer's protocol. Resulting cDNA was used as a template for quantitative real‐time PCR using Perfecta SYBR Green FastMix with ROX (QuantaBio). PCR and analysis were performed using a StepOne PCR System (Applied Biosystems). Gene expression was calculated relative to β‐actin expression and expressed as fold change of control. The primers used were as follows: Human®‐Actin (NM_001101), Human CYP3A4 (NM_001202855), and Human ABCB1 (NM_000927)."}, "hPXR": {"molecular_target": "T2, hPXR (Homo sapiens, UniProt O75469)", "T2 sequence (O75469 111-434 limits assumed)": "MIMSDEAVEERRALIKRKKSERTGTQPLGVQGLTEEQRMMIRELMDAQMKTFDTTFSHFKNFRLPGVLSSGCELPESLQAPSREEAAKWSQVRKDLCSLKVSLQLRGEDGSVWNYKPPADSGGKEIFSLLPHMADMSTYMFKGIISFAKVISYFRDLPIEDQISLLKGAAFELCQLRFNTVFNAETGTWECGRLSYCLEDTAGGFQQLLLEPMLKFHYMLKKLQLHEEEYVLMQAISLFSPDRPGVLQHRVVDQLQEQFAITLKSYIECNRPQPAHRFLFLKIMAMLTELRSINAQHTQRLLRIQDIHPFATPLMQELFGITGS", "test": "hPXR TR-FRET competitive binding assay (LanthaScreen)", "conditions": "for 520/495 TR-FRET ratio: replicate wells; for TR-FRET signal (Fig 1e): each column a repeat", "quoted_text": "All PXR‐binding assays were performed as two independent experiments, each with a minimum of four replicates. Final IC50 was obtained by processing the data with GraphPad Prism 6 using standard curve interpolation (sigmoidal, 4PL, variable slope)."}, "[5]": {"test_system": "CYP1A1, CYP3A4, MDR1 mRNA in primary human hepatocytes", "test": "qRT-PCR of CYP1A1, CYP3A4, MDR1 mRNA in primary human hepatocytes (four donors)", "quoted_text": "as §1, §2"}, "[6]": {"conditions": "PXR-transfected LS180 cells, normalised to GAPDH, fold to UT control"}, "[7]": {"conditions": "mock-transfected LS180 cells, normalised to GAPDH, fold to UT control"}, "[8]": {"conditions": "primary human hepatocytes donor Hep200538, normalised to GAPDH, fold to UT control"}, "[9]": {"conditions": "primary human hepatocytes, donor Hep200529, normalised to GAPDH, fold vs untreated (UT)"}, "[10]": {"conditions": "primary human hepatocytes, donor Hep200533, normalised to GAPDH, fold vs untreated (UT)"}, "[11]": {"conditions": "primary human hepatocytes, donor Hep220932, normalised to GAPDH, fold vs untreated (UT)"}}, "note": "Where “and” joins values, the source holds several entries; their conditions need not be identical. Equal entries are not always repeated. Marks after values point to notes of the source that are not given here."}
{"molecule": "O=C(c1ccncc1)c1cc2ccccc2n1S(=O)(=O)c1ccccc1", "note": "[FKK5, (1-(phenylsulfonyl)-1H-indol-2-yl)(pyridin-4-yl)methanone]", "values": [{"measurement": "CYP3A4 mRNA expression", "setting": "[1]; 24 h", "value": 3.7, "unit": "fold"}, {"measurement": "MDR1 mRNA expression (Fold Change)", "setting": "[1]; 24 h", "value": 5.12, "unit": "fold"}, {"measurement": "TLR4 mRNA expression", "setting": "[1]; 24 h", "value": 0.39, "unit": "fold"}, {"measurement": "CYP3A4 Mean Fold expression", "setting": "[1]; DMSO = 1", "value": 3.7}, {"measurement": "MDR1 Mean Fold expression", "setting": "[1]; DMSO = 1", "value": 5.12}, {"measurement": "hTLR4 Mean Fold expression", "setting": "[1]; DMSO = 1", "value": 0.39}, {"measurement": "PXR target gene induction (in words)", "setting": "[2]", "value": "significantly induced"}, {"measurement": "ABCB1 (MDR1) mRNA fold change, Mean", "setting": "[2]; 10 μM, 24 h, n=3", "value": 2.409, "unit": "fold"}, {"measurement": "ABCC2 mRNA fold change, Mean", "setting": "[2]; 10 μM, 24 h, n=3", "value": 4.345, "unit": "fold"}, {"measurement": "CYP3A4 mRNA fold change, Mean", "setting": "[2]; 10 μM, 24 h, n=3", "value": 2.034, "unit": "fold"}, {"measurement": "GSTA1 mRNA fold change, Mean", "setting": "[2]; 10 μM, 24 h, n=3", "value": 4.61, "unit": "fold"}, {"measurement": "UGT1A1 mRNA fold change, Mean", "setting": "[2]; 10 μM, 24 h, n=3", "value": 1.773, "unit": "fold"}, {"measurement": "CYP1A1 mRNA induction", "setting": "[3]; LS180 cells", "value": "did not induce"}, {"measurement": "CYP1A1 mRNA fold to C", "setting": "[3]; [6]", "value": 1.86}, {"measurement": "CYP3A4 mRNA fold to C", "setting": "[3]; [6]", "value": 3.69}, {"measurement": "MDR-1 mRNA fold to C", "setting": "[3]; [6]", "value": 4.10}, {"measurement": "CYP1A1 mRNA fold to C", "setting": "[3]; [7]", "value": 8.19}, {"measurement": "CYP3A4 mRNA fold to C", "setting": "[3]; [7]", "value": 0.94}, {"measurement": "MDR1 mRNA fold to C", "setting": "[3]; [7]", "value": 3.80}, {"measurement": "PXR target gene induction", "setting": "[4]", "value": "did not induce"}, {"measurement": "FXR ligand agonist activity", "setting": "FXR", "value": "did not observe any significant ligand agonist activity"}, {"measurement": "TNF-α-induced IL-8 mRNA levels", "setting": "IL-8 mRNA", "value": "significantly lowered"}, {"measurement": "520/495 TR-FRET ratio", "setting": "hPXR; 0.001 uM", "value": "0.6965 and 0.4501 and 0.6299 and 0.6424"}, {"measurement": "520/495 TR-FRET ratio", "setting": "hPXR; 0.005 uM", "value": "0.7274 and 0.6833 and 0.7094 and 0.6960"}, {"measurement": "520/495 TR-FRET ratio", "setting": "hPXR; 0.01 uM", "value": "0.5474 and 0.5649 and 0.4572 and 0.5311"}, {"measurement": "520/495 TR-FRET ratio", "setting": "hPXR; 0.05 uM", "value": "0.6957 and 0.6419 and 0.6716 and 0.6881"}, {"measurement": "520/495 TR-FRET ratio", "setting": "hPXR; 0.1 uM", "value": "0.6678 and 0.6931 and 0.6595 and 0.6666"}, {"measurement": "520/495 TR-FRET ratio", "setting": "hPXR; 0.5 uM", "value": "0.6903 and 0.6366 and 0.6178 and 0.6056"}, {"measurement": "520/495 TR-FRET ratio", "setting": "hPXR; 1 uM", "value": "0.6447 and 0.5990 and 0.6565 and 0.5995"}, {"measurement": "520/495 TR-FRET ratio", "setting": "hPXR; 5 uM", "value": "0.4264 and 0.3946 and 0.3906 and 0.3944"}, {"measurement": "520/495 TR-FRET ratio", "setting": "hPXR; 10 uM", "value": "0.2760 and 0.2201 and 0.3383 and 0.4401"}, {"measurement": "520/495 TR-FRET ratio", "setting": "hPXR; 25 uM", "value": "0.2211 and 0.2334 and 0.2644 and 0.2449"}, {"measurement": "TR-FRET signal (Fig 1e)", "setting": "hPXR; Drug Conc 5 nM", "value": "0.7094 and 0.696 and 0.7274 and 0.6833"}, {"measurement": "TR-FRET signal (Fig 1e)", "setting": "hPXR; Drug Conc 10 nM", "value": "0.4572* and 0.5311* and 0.5474* and 0.5649*"}, {"measurement": "TR-FRET signal (Fig 1e)", "setting": "hPXR; Drug Conc 1 uM", "value": "0.5995 and 0.6565 and 0.599 and 0.6447"}, {"measurement": "TR-FRET signal (Fig 1e)", "setting": "hPXR; Drug Conc 5 uM", "value": "0.3906 and 0.3944 and 0.4264 and 0.3946"}, {"measurement": "TR-FRET signal (Fig 1e)", "setting": "hPXR; Drug Conc 25 uM", "value": "0.2644 and 0.2449 and 0.2211 and 0.2334"}, {"measurement": "TR-FRET signal (Fig 1e)", "setting": "hPXR; Drug Conc 2,5 uM", "value": "0.4667 and 0.4734 and 0.4777 and 0.4842"}, {"measurement": "CYP1A1 mRNA induction", "setting": "[5]; four donors", "value": "did not"}, {"measurement": "CYP1A1 mRNA fold to C", "setting": "[5]; [8]", "value": 1.13}, {"measurement": "CYP3A4 mRNA fold to C", "setting": "[5]; [8]", "value": 0.84}, {"measurement": "MDR-1 mRNA fold to C", "setting": "[5]; [8]", "value": 0.52}, {"measurement": "CYP1A1 (1A1) mRNA, fold to C", "setting": "[5]; [9]", "value": 1.12, "unit": "fold"}, {"measurement": "CYP3A4 (3A4) mRNA, fold to C", "setting": "[5]; [9]", "value": 0.73, "unit": "fold"}, {"measurement": "MDR1 mRNA fold to C", "setting": "[5]; [9]", "value": 0.93, "unit": "fold"}, {"measurement": "CYP1A1 (1A1) mRNA, fold to C", "setting": "[5]; [10]", "value": 1.51, "unit": "fold"}, {"measurement": "CYP3A4 (3A4) mRNA, fold to C", "setting": "[5]; [10]", "value": 1.03, "unit": "fold"}, {"measurement": "MDR-1 mRNA, fold to C", "setting": "[5]; [10]", "value": 1.05, "unit": "fold"}, {"measurement": "CYP1A1 (1A1) mRNA, fold to C", "setting": "[5]; [11]", "value": 0.39, "unit": "fold"}, {"measurement": "CYP3A4 (3A4) mRNA, fold to C", "setting": "[5]; [11]", "value": 0.50, "unit": "fold"}, {"measurement": "MDR-1 mRNA, fold to C", "setting": "[5]; [11]", "value": 0.35, "unit": "fold"}]}
